In the assay the test system is mouse IL-5 mRNA in primary LN cells. As to the kind of experiment: Validation: mouse IL-5 mRNA by real-time PCR in LN cells of GA-immunized SJL/J mice (Example IV). The format is cell-based. The settings on record: for IL-5 mRNA Fold Change: normalized to GAPDH; for induction of IL-5 mRNA: 20 μg/mL GA, 6 hours. As for the experimental part:
Three experiments were conducted using one batch of GA (Mylan GMA). The primary LN cells were stimulated by incubation with 6 concentrations (0.3 to 20 μg/mL) of the GA for 6 hours at 37° C. Total RNA was isolated from LN cells stimulated with GA or controls. cDNA was synthesized from the RNA and the mRNA levels of seven mouse cytokines, IL-2, IL-4, IL-5, IL-10, IL-13, interferon (IFN)-γ and tumor necrosis factor (TNF)-α, were quantitatively measured by a real-time PCR method.
Female SJL/J mice at 8-9 weeks of age were immunized by injection into four footpads using a 1 mL syringe with a 27-G, ½-inch needle. Each mouse received a total injection volume of 0.1 mL of GMA emulsified in CFA (about 10 μL into each of the front footpads and 40 μL into each of the hind footpads). Animals were immunized on Day 0. After injection, animals were placed back in their cages and housed ≤6 animals per cage.
Immunized animals were sacrificed by cervical dislocation on Day 10 following immunization. […] After centrifugation at about 200×g for 10 minutes at 4° C., the cell pellet was re-suspended in 40 mL of DCCM-1 medium for cell counting. A Trypan blue exclusion method was used to determine the cell density of viable cells in the suspension. After cell counting, the LN cells were suspended in enriched DCCM-1 medium at density of 7.5×10^6 cells/mL. LN cells (0.12 mL) were plated into each well of 96-well tissue culture plates.
Dilutions of GA (Mylan GMA) were prepared using enriched DCCM-1 medium as the diluent. GA dilutions (0.12 mL) were added in the assigned wells of 96-well tissue culture plates. The same volume of LN cells (0.12 mL) isolated from immunized animals was added to the assigned wells. A positive control and a negative control were always performed in the same assay by treating LN cells with 2.5 μg/mL ConA and 10 μg/mL MBP, respectively. The LN cells with mock stimulation protocols (enriched DCCM-1 medium) were used to monitor the background mRNA level of a cytokine. The plates were incubated at 37° C. in a humidified 5% CO2 incubator for 6 hr.
At the end of incubation time, culture medium from stimulated cells was removed by aspiration and the cells were lysed using Qiagen or Promega lysis buffer. The lysate was transferred to an RNeasy Mini column (Qiagen) or wells of the SV 96 Binding Plate (Promega) for RNA isolation and cDNA synthesis. All tested samples were run in triplicate.
The SV 96 Total RNA Isolation System (Promega; Cat. No. Z3505) was used for total RNA isolation. Assay procedures were carried out according to each manufacturer's protocol. RNA samples were stored at −70° C. until use. […] The assay procedure was carried out according to the manufacturer's protocol.
The plate was centrifuged at 2000 rpm for 2 minutes at 4° C. to spin down the contents and eliminate air bubbles. Samples were prepared and run in a 96-well plate using a Life Technologies Real-Time PCR system (previously Applied Biosystems; Model No. 7500) according to the manufacturer's recommendation. The mix for the reference gene was prepared in the same way using the reference gene primer.
A relative quantitation method was used to analyze changes in mIL-2, mIL-4, mIL-5, mIL-10, mIL-13, mIFN-γ and TNF-α expression in GA treated samples relative to the untreated control (Enriched DCCM-1 treated) samples using the following program:
Levels of mouse cytokine amplicons were normalized to an internal probe level (GAPDH) from the same samples. The following equations were used to calculate the relative increase in response to GA stimulation compared to the control sample (Enriched DCCM1 sample): […]

Here are results for three molecules from patent publication US10344330B2, “Glatiramer acetate response biomarker mRNA potency assay” (Mylan Inc., priority 2013, dated 2019).

Consider “Concanavalin A [ConA, reference compound]”, for which the “IL-5 mRNA Fold Change” value is given as 22.4 fold (Experiment 1, 2.5 μg/mL); 11.3 fold (Experiment 2, 2.5 μg/mL); 31.0 fold (Experiment 3, 2.5 μg/mL).
For “L-glutamic acid polymer with L-alanine, L-lysine and L-tyrosine, acetate (salt) [GA]”, the “induction of IL-5 mRNA” value (SJL/J, Exp 1) was found to be 5.2 fold; the “induction of IL-5 mRNA” value (SJL/J, Exp 2) amounted to 5.3 fold; the “induction of IL-5 mRNA” value (SJL/J, Exp 3) was 15.2 fold. Also, the “induction of IL-5 mRNA (in words)” value (SJL/J, different concentrations of GA vs unstimulated LN cells) is “moderate induction”.

B1: MBP: myelin basic protein, a negative control (protein, UniProt P02686 1-304, looked up)
Myelin basic protein: MGNHAGKRELNAEKASTNSETNRGESEKKRNLGELSRTTSEDNEVFGEADANQNNGTSSQDTAVTDSKRTADPKNAWQDAHPADPGSRPHLIRLFSRDAPGREDNTFKDRPSESDELQTIQEDSAATSESLDVMASQKRPSQRHGSKYLATASTMDHARHGFLPRHRDTGILDSIGRFFGGDRGAPKRGSGKDSHHPARTAHYGSLPQKSHGRTQDENPVVHFFKNIVTPRTPPPSQGKGRGLSLSRFSWGAEGQRPGFGYGGRASDYKSAHKGFKGVDAQGTLSKIFKLGGRDSRSGSPMARR
As for B1, the “IL-5 mRNA Fold Change” value is, setting by setting: (Experiment 1, 10 μg/mL) 0.8 fold; (Experiment 2, 10 μg/mL) 0.8 fold; (Experiment 3, 10 μg/mL) 2.6 fold.
